Data as given in PMC9476189 (ACS Omega, 2022).

Key:
BChE = BChE (Homo sapiens, UniProt P06276); conditions: 0.5 mM; mean ± SEM, triplicate
LOX = target: T1, LOX (Glycine max, UniProt P08170); assay: Lipoxygenase assay; assay type: biochemical; conditions: mean ± SEM, triplicate
T1 sequence (P08170 1-839): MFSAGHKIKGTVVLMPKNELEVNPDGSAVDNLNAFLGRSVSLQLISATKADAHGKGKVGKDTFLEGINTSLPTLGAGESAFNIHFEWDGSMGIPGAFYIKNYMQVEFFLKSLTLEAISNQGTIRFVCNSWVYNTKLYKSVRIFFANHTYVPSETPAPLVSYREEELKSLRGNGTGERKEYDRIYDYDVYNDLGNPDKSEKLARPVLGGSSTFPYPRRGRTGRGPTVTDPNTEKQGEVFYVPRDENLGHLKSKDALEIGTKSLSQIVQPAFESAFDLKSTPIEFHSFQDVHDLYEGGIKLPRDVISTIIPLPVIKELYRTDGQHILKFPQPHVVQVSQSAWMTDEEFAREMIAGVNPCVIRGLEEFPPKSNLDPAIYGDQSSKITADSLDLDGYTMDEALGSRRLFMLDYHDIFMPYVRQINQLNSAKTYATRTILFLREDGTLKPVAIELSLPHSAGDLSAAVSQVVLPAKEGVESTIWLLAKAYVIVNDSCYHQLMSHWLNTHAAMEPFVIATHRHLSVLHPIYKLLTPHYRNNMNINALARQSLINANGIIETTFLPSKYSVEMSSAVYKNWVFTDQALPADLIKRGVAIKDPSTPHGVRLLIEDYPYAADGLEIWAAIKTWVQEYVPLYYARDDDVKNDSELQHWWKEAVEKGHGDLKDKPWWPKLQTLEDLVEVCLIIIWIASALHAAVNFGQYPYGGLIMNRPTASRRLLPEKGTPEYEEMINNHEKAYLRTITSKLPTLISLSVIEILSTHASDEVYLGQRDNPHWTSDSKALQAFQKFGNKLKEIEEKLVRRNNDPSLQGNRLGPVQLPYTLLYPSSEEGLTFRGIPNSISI

urease = urease (Canavalia ensiformis, UniProt P07374); conditions: mean ± SEM, triplicate; for IC50: read-out: urease inhibition, IC50
AChE = AChE (Homo sapiens, UniProt P22303); conditions: for AChE inhibition, inhibition (%) at 0.5 mM / IC50: mean ± SEM, triplicate; for IC50: read-out: AChE inhibition, IC50
α-glucosidase = α-glucosidase (Saccharomyces cerevisiae, UniProt P53341); assay: α-Glucosidase assay; assay type: biochemical; conditions: for α-glucosidase inhibition, inhibition (%) at 0.5 mM / IC50: mean ± SEM, triplicate; for IC50: read-out: α-glucosidase inhibition, IC50
Chain of α-glucosidase (P53341 whole entry): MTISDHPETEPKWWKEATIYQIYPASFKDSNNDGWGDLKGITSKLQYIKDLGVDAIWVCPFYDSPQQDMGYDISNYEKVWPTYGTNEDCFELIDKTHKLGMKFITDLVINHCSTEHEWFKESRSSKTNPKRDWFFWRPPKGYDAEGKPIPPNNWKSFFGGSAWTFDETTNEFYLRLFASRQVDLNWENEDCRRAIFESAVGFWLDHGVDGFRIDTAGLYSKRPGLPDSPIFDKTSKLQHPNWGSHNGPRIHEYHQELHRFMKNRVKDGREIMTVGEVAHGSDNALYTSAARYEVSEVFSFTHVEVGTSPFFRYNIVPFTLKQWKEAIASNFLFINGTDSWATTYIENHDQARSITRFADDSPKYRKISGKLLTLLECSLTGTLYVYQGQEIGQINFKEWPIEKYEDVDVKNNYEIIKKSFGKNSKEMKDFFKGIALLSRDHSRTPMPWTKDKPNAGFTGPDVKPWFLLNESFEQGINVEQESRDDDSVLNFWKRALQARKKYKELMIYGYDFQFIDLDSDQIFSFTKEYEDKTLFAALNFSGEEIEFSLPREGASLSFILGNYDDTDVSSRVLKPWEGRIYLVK

Chain of AChE (P22303 32-614): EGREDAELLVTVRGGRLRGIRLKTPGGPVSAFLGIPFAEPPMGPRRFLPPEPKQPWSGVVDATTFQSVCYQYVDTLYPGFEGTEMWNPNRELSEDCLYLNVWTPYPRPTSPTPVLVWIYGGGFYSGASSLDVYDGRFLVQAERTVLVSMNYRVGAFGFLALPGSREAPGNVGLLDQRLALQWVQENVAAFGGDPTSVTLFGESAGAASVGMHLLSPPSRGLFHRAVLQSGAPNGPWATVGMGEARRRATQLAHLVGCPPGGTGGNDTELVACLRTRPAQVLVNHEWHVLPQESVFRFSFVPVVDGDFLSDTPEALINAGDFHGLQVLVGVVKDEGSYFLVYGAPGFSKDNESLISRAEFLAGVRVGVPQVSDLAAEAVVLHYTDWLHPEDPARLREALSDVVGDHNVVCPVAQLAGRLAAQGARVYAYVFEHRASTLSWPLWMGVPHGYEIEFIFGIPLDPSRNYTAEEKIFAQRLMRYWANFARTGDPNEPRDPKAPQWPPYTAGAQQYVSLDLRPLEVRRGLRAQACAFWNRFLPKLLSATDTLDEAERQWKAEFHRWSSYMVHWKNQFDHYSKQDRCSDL
Chain of urease (P07374 whole entry, looked up): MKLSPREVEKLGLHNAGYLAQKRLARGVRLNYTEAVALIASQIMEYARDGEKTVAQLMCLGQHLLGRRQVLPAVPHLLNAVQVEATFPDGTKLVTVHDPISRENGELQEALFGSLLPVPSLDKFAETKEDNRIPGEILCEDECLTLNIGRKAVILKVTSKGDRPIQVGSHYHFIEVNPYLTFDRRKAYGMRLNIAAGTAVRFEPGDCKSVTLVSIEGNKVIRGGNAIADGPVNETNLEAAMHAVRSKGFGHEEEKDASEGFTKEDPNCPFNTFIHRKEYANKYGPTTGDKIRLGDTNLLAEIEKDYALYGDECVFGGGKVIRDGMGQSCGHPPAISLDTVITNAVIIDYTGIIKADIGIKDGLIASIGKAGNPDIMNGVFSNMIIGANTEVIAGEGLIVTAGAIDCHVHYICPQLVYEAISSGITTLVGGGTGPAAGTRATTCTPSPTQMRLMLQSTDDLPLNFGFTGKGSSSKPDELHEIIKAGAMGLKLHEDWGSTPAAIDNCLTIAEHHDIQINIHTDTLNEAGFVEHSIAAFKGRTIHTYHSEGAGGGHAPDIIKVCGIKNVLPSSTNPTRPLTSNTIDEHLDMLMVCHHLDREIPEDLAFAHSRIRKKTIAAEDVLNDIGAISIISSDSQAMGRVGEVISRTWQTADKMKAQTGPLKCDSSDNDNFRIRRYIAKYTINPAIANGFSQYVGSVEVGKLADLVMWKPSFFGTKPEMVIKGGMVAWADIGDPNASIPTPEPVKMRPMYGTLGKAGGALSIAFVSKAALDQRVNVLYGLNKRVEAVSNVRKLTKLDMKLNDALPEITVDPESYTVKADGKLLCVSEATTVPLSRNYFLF
Chain of BChE (P06276 29-602, species assumed): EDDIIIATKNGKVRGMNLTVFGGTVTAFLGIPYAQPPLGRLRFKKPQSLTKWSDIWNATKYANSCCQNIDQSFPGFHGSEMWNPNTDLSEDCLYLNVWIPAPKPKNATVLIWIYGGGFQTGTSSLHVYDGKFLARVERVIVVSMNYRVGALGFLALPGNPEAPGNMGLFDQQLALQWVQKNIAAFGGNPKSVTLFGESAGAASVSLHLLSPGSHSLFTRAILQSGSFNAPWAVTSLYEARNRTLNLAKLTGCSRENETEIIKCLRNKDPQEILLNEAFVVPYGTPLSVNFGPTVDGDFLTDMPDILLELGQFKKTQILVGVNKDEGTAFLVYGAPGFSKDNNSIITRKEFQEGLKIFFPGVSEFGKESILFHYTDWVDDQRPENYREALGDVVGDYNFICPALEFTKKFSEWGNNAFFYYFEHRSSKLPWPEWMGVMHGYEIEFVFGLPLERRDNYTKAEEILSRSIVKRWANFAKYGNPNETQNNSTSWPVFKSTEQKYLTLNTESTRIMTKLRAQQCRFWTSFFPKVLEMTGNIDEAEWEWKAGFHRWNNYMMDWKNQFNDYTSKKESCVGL

| Structure (SMILES) | BChE inhibition, inhibition (%) at 0.5 mM (BChE) [%] | LOX inhibition, inhibition (%) at 0.25 mM (LOX) [%] | IC50 (LOX; read-out: LOX inhibition, IC50) [µM] | urease inhibition, inhibition (%) at 0.25 mM (urease) [%] | IC50 (urease) [µM] | activity against AChE enzyme (in words) (AChE) | AChE inhibition, inhibition (%) at 0.5 mM (AChE) [%] | IC50 (AChE) [µM] | activity against α-glucosidase enzyme (in words) (α-glucosidase) | α-glucosidase inhibition, inhibition (%) at 0.5 mM (α-glucosidase) [%] | IC50 (α-glucosidase) [µM] |
| --- | --- | --- | --- | --- | --- | --- | --- | --- | --- | --- | --- |
| Cc1ccc(S(=O)(=O)N2CCC(c3nnc(SCC(=O)Nc4cccc(C)c4)n3C)CC2)cc1 [Compound 12d, 1-(4-Toluenesulfonyl)-4-{3-[N-(3-methylphenyl)-2-ethanamoylthio]-4-methyl-4H-1,2,4-triazol-5-yl}{Kumari, 2021 #63} piperidine] | 95.29 ± 0.74 | 68.34 ± 0.82 | 32.6 ± 0.42 | 98.22 ± 1.65 | 19.4 ± 1.28 | excellent activity | 98.78 ± 0.78 | 0.73 ± 0.54 | excellent activity | 91.52 ± 1.43 | 36.7 ± 1.24 |
| Cc1ccc(S(=O)(=O)N2CCC(c3nnc(SCC(=O)Nc4cc(C)ccc4C)n3C)CC2)cc1 [Compound 12k, 1-(4-toluenesulfonyl)-4-{3-[N-(2,5-dimethylphenyl)-2-ethanamoylthio]-4-methyl-4H-1,2,4-triazol-5-yl} piperidine] | 49.23 ± 0.94 | 29.45 ± 0.72 |  | 76.15 ± 1.52 | 165.4 ± 1.27 |  | 65.27 ± 0.74 | 212.9 ± 0.59 |  | 71.16 ± 1.64 | 385.6 ± 1.32 |
